The text below walks through data of patent US20030211547A1 (priority 2002, published 2003).

One experiment addresses BK channels (Homo sapiens, UniProt Q12791). As to conditions: cited from earlier work.
Experiment [1] has as its system C. elegans. The source says: The F2 population was screened to identify animals that were homozygous for recessive mutations or heterozygous for dominant mutations that alter sensitivity to the effects of ethanol on locomotion. Wild-type C. elegans normally move with a sinusoid pattern of locomotion, but when exposed to high concentrations of ethanol, they display extreme, reversible (after the removal of ethanol) uncoordination and paralysis. Animals that are resistant to the effects of ethanol display the sinusoid pattern of locomotion even in the presence of high concentrations of ethanol. To identify the mutants, animals of the F2 generation were washed from their plates into 1.5 ml tubes, rinsed free of bacteria and incubated in a solution of 400 mM ethanol for 30-50 min. The worms were then transferred to the center of 100 mm petri plates that held media containing 400 mM ethanol and a circle of E. coli (OP50) bacteria on the periphery of the media. […] Animals that moved to the bacteria quickly and with a wild-type pattern of locomotion were identified as ethanol-resistant candidates.
The slo-1 gene is expressed in most, if not all neurons, and in body wall muscle but not in pharyngeal muscle. […] BK4.1 has the slo-1 cdNA fused with the promoter from the C. elegans body muscle myosin (myo-3) gene, which is expressed exclusively in body muscle. We transformed animals homozygous for a known null mutation of slo-1(js118) with each of these DNA constructs separately where the concentration of the BK3.1 or BK4.1 constructs was 20 ng/μ1 in the injection solution. So that we could identify transformed progeny of the injected animals we coinjected a DNA construct that expresses the green fluorescent protein (GFP) in neurons with BK3.1 and a construct that expresses GFP in body muscle with BK4.1. In this way we could examine the progeny of the injected animals under a UV microscope and any animals showing GFP fluorescence have been transformed with the injected DNA. If transformed animals are picked to individual plates and their progeny examined for the presence of GFP, only the animals that are germ-line transformants will have progeny expressing GFP.
(§1) To rule out the possibility of hyperactivity contributing to the resistance seen in slo-1, we compared the level of resistance caused by mutations in slo-1 with the resistance induced by mutations in other regulators of neuron activity including loss-of-function mutations in dgk-1 and goa-1 and a gain-of-function mutation in egl-30. Each of these mutants appears phenotypically hyperactive with increased amplitude of body bends and hyperactive egg laying. […] When SLO-1 is absent the ethanol […] in the nervous system and its effects are greatly minimized.

For experiment [2], the system named is C. elegans.
From the text: These mutants were examined for the effect of ethanol on two behaviors other than locomotion: egg laying and pharyngeal pumping. […] Unlike wild-type worms, the egg-laying behavior of BZ6, BZ7 and BZ73 worms was unaffected by high doses of ethanol.
as §1
This is another data set of the same source.

The subject of experiment [3] is C. elegans. The source says:
(§2) Based on studies of other known mutants in C. elegans, hypersensitivity to aldicarb may indicate an increase in synaptic transmission of acetylcholine compared with wild-type animals.
The source holds these as a separate data set.

For experiment [4], the system named is C. elegans. Briefly: Aldicarb sensitivity (paralysis) of C. elegans. The experiment is classed as in vivo.
From the text: as §2

Like-named read-outs stand apart in the source and are kept apart here.

Sequence of BK channels (Q12791 whole entry): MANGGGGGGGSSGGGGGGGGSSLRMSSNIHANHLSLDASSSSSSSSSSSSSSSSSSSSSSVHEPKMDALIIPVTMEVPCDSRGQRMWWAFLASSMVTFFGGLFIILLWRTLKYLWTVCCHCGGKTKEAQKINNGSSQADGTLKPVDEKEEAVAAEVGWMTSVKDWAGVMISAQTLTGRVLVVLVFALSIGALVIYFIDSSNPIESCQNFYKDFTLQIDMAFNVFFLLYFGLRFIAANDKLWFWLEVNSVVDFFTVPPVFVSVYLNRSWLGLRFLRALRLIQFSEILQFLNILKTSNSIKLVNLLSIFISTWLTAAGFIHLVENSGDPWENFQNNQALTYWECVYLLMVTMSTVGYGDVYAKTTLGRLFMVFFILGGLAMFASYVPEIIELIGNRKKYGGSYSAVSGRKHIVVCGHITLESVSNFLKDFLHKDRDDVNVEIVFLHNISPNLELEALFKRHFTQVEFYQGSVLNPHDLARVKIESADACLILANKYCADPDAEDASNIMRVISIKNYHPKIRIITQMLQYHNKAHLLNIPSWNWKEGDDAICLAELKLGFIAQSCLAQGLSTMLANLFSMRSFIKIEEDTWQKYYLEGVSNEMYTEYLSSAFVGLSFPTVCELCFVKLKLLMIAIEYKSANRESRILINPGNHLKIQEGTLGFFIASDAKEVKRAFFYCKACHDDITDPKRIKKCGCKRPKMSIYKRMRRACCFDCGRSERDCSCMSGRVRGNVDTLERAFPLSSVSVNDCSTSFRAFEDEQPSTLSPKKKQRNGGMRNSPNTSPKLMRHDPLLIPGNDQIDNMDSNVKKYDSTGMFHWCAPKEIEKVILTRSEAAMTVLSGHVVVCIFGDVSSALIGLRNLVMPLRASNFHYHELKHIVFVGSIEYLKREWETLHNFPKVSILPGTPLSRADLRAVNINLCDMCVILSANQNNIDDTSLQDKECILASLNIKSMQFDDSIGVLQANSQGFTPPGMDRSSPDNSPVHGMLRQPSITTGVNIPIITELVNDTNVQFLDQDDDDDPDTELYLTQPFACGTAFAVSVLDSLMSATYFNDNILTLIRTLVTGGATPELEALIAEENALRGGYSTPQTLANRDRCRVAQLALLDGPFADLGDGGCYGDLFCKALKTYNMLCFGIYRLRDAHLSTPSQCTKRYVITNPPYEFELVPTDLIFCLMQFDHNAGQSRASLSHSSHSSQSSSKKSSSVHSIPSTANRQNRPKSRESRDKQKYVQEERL

For the compound “Iberiotoxin (QFTDVDCSVSKECWSVCKDLFGVDRGKCMGKKCRCYQ; UniProt P24663 1-37, looked up)”, the “effective concentration as blocker of BK channels” value in the experiment with BK channels is “about 10 nM”.

For `CCO` [ethanol], the decrease in speed is on record as 40% in the experiment on C. elegans [1] (dgk-1(sy428)); 40% in the experiment with C. elegans [1] (egl-30(js126gf)); 70% in the experiment with C. elegans [1] (slo-1(js118) animals carrying a BK3.1 transgene (SLO-1 only in neurons)); “little or no decrease in speed” in the experiment on C. elegans [1] (slo-1(js118) animals carrying a BK4.1 transgene (SLO-1 only in body muscle)); “no decrease in speed” with C. elegans [1] (slo-1(js118) animals, intoxicating doses of ethanol); “no decrease in speed” with C. elegans [1] (three slo-1 mutations js118, eg6 and eg73, ethanol dose giving 60% decrease in wild-type). In the experiment with C. elegans [1] (wild-type animals, intoxicating doses of ethanol), this compound registered a decrease in speed of 60%. In the experiment with C. elegans [1] (wild-type animals, 400 mM ethanol), the effect on locomotion result is “severe uncoordination and lethargy”. The effect on egg-laying result with C. elegans [2] (BZ6, BZ7 and BZ73 worms, high doses of ethanol) was “unaffected”; in the experiment on C. elegans [2] (BZ6, BZ7 and BZ73 worms, low doses (e.g. 50-100 mM exogenous concentration)), “lay more eggs than wild-type worms”; in the experiment with C. elegans [2] (BZ8, high doses of ethanol), “did not display this ethanol-resistance”; with C. elegans [2] (wild-type C. elegans, high doses (e.g. 400 mM exogenous concentration)), “almost completely suppress egg-laying”. For the same compound, the “decrease in egg laying” value with C. elegans [2] (egl-30(js126)) stood at 72%; with C. elegans [2] (goa-1(n1134)), 80%; in the experiment with C. elegans [2] (slo-1(eg24)), 12%; in the experiment on C. elegans [2] (wild-type strain), 96%. Also, the “decrease in egg laying rate” value with C. elegans [2] (slo-1(eg142)) is on record as “no decrease in egg laying rate”.

`c1ccc([C@H]2CN3CCSC3=N2)cc1` [levamisole]: the response to levamisole entry was “wild-type response” with C. elegans [3] (BZ6, BZ7 and BZ73, 60-100 μM); “hypersensitive” in the experiment with C. elegans [3] (BZ8).

Take `CNC(=O)O/N=C/C(C)(C)SC` [aldicarb]: the “concentrations of aldicarb at which paralysis is displayed” value in the experiment on C. elegans [4] (ethanol-resistant mutants (BZ6, BZ7, BZ8, BZ73)) fell in the range of 0.1 to 0.25 mM. In the experiment with C. elegans [4] (wild-type animals, 0.1-0.25 mM), the effect of aldicarb result was “only mildly affect”.
